Measured values taken from patent publication US6752986B2, “Composition and methods for affecting metallocorrinoid uptake” (The Cleveland Clinic Foundation, priority 2001, dated 2004).

Tests used:
L1210 = conditions: L1210, high levels of Cbl; cited from earlier work
P388D1 = conditions: P388D1, high levels of Cbl; cited from earlier work
CCRF-CEM = conditions: high levels of Cbl; cited from earlier work
NCTC929 = conditions: NCTC929, high levels of Cbl; cited from earlier work
[1] = tested on: NIH-OVCAR-3 ovarian carcinoma; assay: SRB anti-proliferative cell survival assay, NIH-OVCAR-3; format: cell-based, human; conditions: concentration used in the Annexin V assay for 48 hrs
WM9 human melanoma = assay: SRB anti-proliferative cell survival assay, WM9; format: cell-based; conditions: WM9 versus NIH-OVCAR-3
Protocol: WM9 human melanoma was evaluated after 4 days growth.
Cells (2×10^3) were seeded in 96-well plates. Data points represent mean of eight replicates. (n=8). A control plate was fixed 4 hr after seeding (to allow cells to attach) to determine the initial seeding density (Aini). This was defined as 0% growth. To the wells of the seeded experimental plate, IFN-β was added and incubation continued for 3-5 days. Untreated cell controls were included. Growth obtained with this control was defined as 100% (Afin). To determine cell number, cells were fixed with 10% trichloroacetic acid at 4° C. for 1 h. They were stained with 0.4% sulforhodamine B prepared in 1% acetic acid at 25° C. for 1 h (27). The wells were washed with 1% acetic acid. Bound dye was eluted with 100 μl of 10 mM Tris-HCl, ph 10.5 and quantitated in a microplate reader at 570 nm. Growth in IFN-β-treated wells (experimental=exp) was expressed as a percentage of untreated control growth (mean±SEM).
%Control growth=100%×(Aexp−Aini)/(Afin−Aini)
%STD=100%×(STDexp/(Afin−Aini))
%SEM=100%×(SEMexp/(Afin−Aini) ) where SEM=STD/✓n

[2] = tested on: subcutaneous NIH-OVCAR-3 tumors; assay: Intraperitoneal NO-Cbl treatment of established subcutaneous NIH-OVCAR-3 tumors; format: in vivo, nude mice
[3] = tested on: five human hematological and eight solid tumor cell lines; conditions: cited from earlier work

| Compound | cell proliferation (L1210) | cell proliferation (P388D1) | cell proliferation (CCRF-CEM) | cell proliferation (NCTC929) | ID25 [1] [µM] | ID50 of WM9 cells compared to NIH-OVCAR-3 (WM9 human melanoma) | mean volume of untreated tumors compared to NO-Cbl treated tumors ([2]; at the end of the study) [fold] | decrease in volume of treated tumors ([2]; during the treatment period) [fold] | tumor response ([2]; intraperitoneal NO-Cbl, established subcutaneous NIH-OVCAR-3 tumors) | ID50 lower in tumor cell lines compared to benign cells (fibroblasts and endothelial cells) [3] |
| --- | --- | --- | --- | --- | --- | --- | --- | --- | --- | --- |
| C/C1=C2/[N-][C@H]([C@H](CC(N)=O)[C@@]2(C)CCC(=O)NC[C@@H](C)OP(=O)([O-])O[C@H]2[C@@H](O)[C@@H](n3cnc4cc(C)c(C)cc43)O[C@@H]2CO)[C@]2(C)N=C(/C(C)=C3N=C(/C=C4N=C1[C@@H](CCC(N)=O)C\4(C)C)[C@@H](CCC(N)=O)[C@]\3(C)CC(N)=O)[C@@H](CCC(N)=O)[C@]2(C)CC(N)=O.[Co] [Cbl, cobalamin] | inhibited | inhibited | inhibited | inhibited | – | – | – | – | – | – |
| Nitrosylcobalamin [NO-Cbl] | – | – | – | – | 10 | higher ID50 | 18 | 4 | tumor regression | 5-100 fold |
